Reference: US20060160887A1, “Medicinal composition” (Kyowa Hakko Kogyo Co., Ltd., priority 2003, published 2006)

Legend:
[1] = system: A-type potassium channels; settings: known from WO02/078523 and WO02/078710; cited from earlier work
[2] = system: premicturition contractions in rats with spinal cord injury; assay: Inhibitory activity on detrusor overactivity (cystometry, premicturition contractions) in rats with spinal cord injury; type: in vivo, rat; settings: p.o.; for amplitude of premicturition contractions (relative value, before administration = 100) / frequency of premicturition contractions (relative value, before administration = 100): female SD rats with spinal cord injury, mean ± SE, n = 9; for effect on premicturition contractions (amplitude and frequency of premicturition contractions), in words: rats with spinal cord injury, summary of Tables 1 and 2
Excerpt: Spinal cord was injured in the rats.

[3] = Compound (Ia) 0.01 mg/kg, after 1 hour
[4] = Compound (Ia) 0.01 mg/kg, after 3 hours
[5] = Compound (Ia) 0.01 mg/kg, after 5 hours
[6] = Tolterodine 3 mg/kg, after 1 hour
[7] = Tolterodine 3 mg/kg, after 3 hours
[8] = Tolterodine 3 mg/kg, after 5 hours

CC(O)(C(=O)Nc1cccc2c1C(=O)c1sccc1CS2(=O)=O)C(F)(F)F (stereo not drawn) [Compound (I), 3,3,3-trifluoro-2-hydroxy-2-methyl-N-(5,5,10-trioxo-4,10-dihydrothieno[3,2-c][1]benzothiepin-9-yl)propanamide]
effect on A-type potassium channels, in words [1]: opening effect of A-type potassium channels

C[C@](O)(C(=O)Nc1cccc2c1C(=O)c1sccc1CS2(=O)=O)C(F)(F)F [Compound (Ia), (S)-(+)-3,3,3-trifluoro-2-hydroxy-2-methyl-N-(5,5,10-trioxo-4,10-dihydrothieno[3,2-c][1]benzothiepin-9-yl) propanamide]
amplitude of premicturition contractions (relative value, before administration = 100) [2, 3]: 71.9 ± 7.3 %
frequency of premicturition contractions (relative value, before administration = 100) [2, 3]: 61.6 ± 9.8 %
amplitude of premicturition contractions (relative value, before administration = 100) [2, 4]: 62.6 ± 7.3 %
frequency of premicturition contractions (relative value, before administration = 100) [2, 4]: 53.2 ± 4.9 %
amplitude of premicturition contractions (relative value, before administration = 100) [2, 5]: 65.1 ± 7.2%
frequency of premicturition contractions (relative value, before administration = 100) [2, 5]: 56.0 ± 8.3 %
effect on premicturition contractions (amplitude and frequency of premicturition contractions), in words [2]: inhibited premicturition contractions

Cc1ccc(O)c([C@H](CCN(C(C)C)C(C)C)c2ccccc2)c1 [Tolterodine, tolterodine, reference compound]
amplitude of premicturition contractions (relative value, before administration = 100) [2, 6]: 105.9 ± 24.3%
frequency of premicturition contractions (relative value, before administration = 100) [2, 6]: 70.4 ± 11.6%
amplitude of premicturition contractions (relative value, before administration = 100) [2, 7]: 79.6 ± 9.7%
frequency of premicturition contractions (relative value, before administration = 100) [2, 7]: 73.4 ± 8.2%
amplitude of premicturition contractions (relative value, before administration = 100) [2, 8]: 70.3 ± 11.9 %
frequency of premicturition contractions (relative value, before administration = 100) [2, 8]: 75.5 ± 12.0%
effect on premicturition contractions (amplitude and frequency of premicturition contractions), in words [2]: inhibited premicturition contractions
